Patent publication US12590062B2, “PD-1/PD-L1 inhibitors” (Gilead Sciences, Inc., priority 2017, dated 2026)
Each block holds one compound with its values, some of them ahead of it.

Key:
PD-1/PD-L1 = PD-1/PD-L1 (Homo sapiens, UniProt Q9NZQ7); assay: PD-1/PD-L1 biochemical protein-protein interaction assay (ALPHA); format: binding; conditions: 0.3 nM His tagged PD-L1, 2.5 nM biotinylated Fc-PD-1, 60 minutes at 25° C., read-out: IC50 PD-L1-PD-1 Alpha IC50-mono PD-L1-fcP-D1
Summary of the method: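 ALPHA bead proximity assay of extracellular domains: 0.3 nM His-PD-L1 with 2.5 nM biotinylated Fc-PD-1 in 25 mM Hepes pH 7.4, 150 mM NaCl, 3.4 mM EDTA, 0.005% Tween 20, 0.01% BSA, 60 min at 25 °C. Anti-His acceptor and streptavidin donor beads added; IC50 from four-parameter fit of signal loss.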

PD-L1 = biological target: T1, PD-L1 (Homo sapiens, UniProt Q9NZQ7); assay: PD-L1/PD-L1 dimerization biochemical protein-protein interaction assay (ALPHA); format: binding; conditions: compound-induced PD-L1 dimerization, head prints '1 nM' (0.5 nM His-tagged PD-L1 and 0.5 nM FLAG-tagged PD-L1), read-out: AC50 PDL1 Dimer Alpha 1 nM
T1 construct: determine if they can specifically dimerize the extracellular domains of PD-L1
Summary of the method: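 ALPHA proximity assay of compound-induced dimerization of 0.5 nM His-tagged and 0.5 nM FLAG-tagged PD-L1 extracellular domains in Hepes pH 7.4 buffer, 2 h at 25 °C. Anti-His acceptor then anti-FLAG donor beads, 60 min each; AC50 from four-parameter fit.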

PD-1/PD-L1 interaction = biological target: T2, PD-1/PD-L1 interaction (Homo sapiens, UniProt Q9NZQ7); assay: PD-1/PD-L1 NFAT reporter co-culture assay; format: cell-based; conditions: Jurkat PD-1 NFAT-luciferase cells co-cultured with aAPC-PD-L1 CHO cells, 6 hrs at 37° C.; read-out: EC50 NFAT Luciferase
T2 construct: expressed in transfected cells; host or cells: CHO cells (aAPC-PD-L1) co-cultured with Jurkat cells overexpressing PD-1 and an NFAT-luciferase reporter
Summary of the method: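 First, CHO cells displaying anti-CD3 antibody and PD-L1 were plated overnight. Next, compound-treated PD-1 Jurkat NFAT-luciferase reporter cells in 2% FBS RPMI were added for 6 h at 37 °C. Finally, ONE-Glo luminescence was read and EC50 values fitted with a four-parameter equation.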

Sequence of PD-1/PD-L1 (Q9NZQ7 19-238 limits assumed): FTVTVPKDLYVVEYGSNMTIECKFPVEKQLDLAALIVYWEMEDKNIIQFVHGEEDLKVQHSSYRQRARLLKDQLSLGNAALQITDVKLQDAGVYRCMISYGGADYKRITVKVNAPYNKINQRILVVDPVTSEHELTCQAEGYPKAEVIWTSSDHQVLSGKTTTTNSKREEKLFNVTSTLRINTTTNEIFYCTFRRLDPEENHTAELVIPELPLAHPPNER
T1 sequence (Q9NZQ7 19-238 limits assumed): as above
T1 sequence (Q9NZQ7 19-238 limits assumed): as above
T2 sequence (Q9NZQ7 19-290): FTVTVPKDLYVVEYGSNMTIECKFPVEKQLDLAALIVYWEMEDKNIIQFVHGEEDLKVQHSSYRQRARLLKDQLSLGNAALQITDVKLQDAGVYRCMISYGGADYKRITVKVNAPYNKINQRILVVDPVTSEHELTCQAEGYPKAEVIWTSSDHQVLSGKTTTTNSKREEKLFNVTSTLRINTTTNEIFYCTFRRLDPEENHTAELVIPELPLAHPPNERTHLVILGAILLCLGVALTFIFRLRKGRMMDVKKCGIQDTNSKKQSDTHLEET

Structure (SMILES): Cc1c(COc2cc(OCc3cncc(C#N)c3)c(CNC[C@@H](O)CC(=O)O)cc2Cl)cccc1-c1cccc(-c2ccc3c(c2)c(C)nn3CCNC[C@@H](O)CC(=O)O)c1C [Example 347, (S)-4-((4-((3′-(1-(2-(((S)-3-carboxy-2-hydroxypropyl)amino)ethyl)-3-methyl-1H-indazol-5-yl)-2,2′-dimethyl-[1,1′-biphenyl]-3-yl)methoxy)-5-chloro-2-((5-cyanopyridin-3-yl)methoxy)benzyl)amino)-3-hydroxybutanoic acid]
IC50 (PD-1/PD-L1): 0.211 nM | AC50 (PD-L1): 125 nM | EC50 (PD-1/PD-L1 interaction): 142 nM

Structure (SMILES): N#Cc1cc(C#N)cc(COc2nc(OCc3cccc(-c4cccc(-c5ccc(OCCNCCO)cc5)c4Cl)c3Cl)c(Cl)cc2CNC[C@@H](O)CC(=O)O)c1 [Example 351, (S)-4-(((5-chloro-6-((2,2′-dichloro-4″-(2-((2-hydroxyethyl)amino)ethoxy)-[1,1′:3′,1″-terphenyl]-3-yl)methoxy)-2-((3,5-dicyanobenzyl)oxy)pyridin-3-yl)methyl)amino)-3-hydroxybutanoic acid]
IC50 (PD-1/PD-L1): 0.982 nM | AC50 (PD-L1): 168 nM | EC50 (PD-1/PD-L1 interaction): 235 nM

Structure (SMILES): Cc1c(COc2cc(OCc3cncc(C#N)c3)c(CNC[C@@H](O)CC(=O)O)cc2Cl)cccc1-c1cccc(-c2ccc(OC[C@@H](N)CO)cc2)c1C [Example 353, (S)-4-((4-((4″-((S)-2-amino-3-hydroxypropoxy)-2,2′-dimethyl-[1,1′:3′,1″-terphenyl]-3-yl)methoxy)-5-chloro-2-((5-cyanopyridin-3-yl)methoxy)benzyl)amino)-3-hydroxybutanoic acid]
IC50 (PD-1/PD-L1): 0.311 nM | AC50 (PD-L1): 215 nM | EC50 (PD-1/PD-L1 interaction): 153 nM

Structure (SMILES): Cc1c(COc2cc(OCc3cncc(C#N)c3)c(CNC[C@@H](O)CC(=O)O)cc2Cl)cccc1-c1cccc(-c2ccc(O[C@H]3CCCN(CCO)C3)cc2)c1C [Example 354, (S)-4-((5-chloro-2-((5-cyanopyridin-3-yl)methoxy)-4-((4″-(((S)-1-(2-hydroxyethyl)piperidin-3-yl)oxy)-2,2′-dimethyl-[1,1′:3′,1″-terphenyl]-3-yl)methoxy)benzyl)amino)-3-hydroxybutanoic acid]
IC50 (PD-1/PD-L1): 0.241 nM | AC50 (PD-L1): 342 nM | EC50 (PD-1/PD-L1 interaction): 1880 nM

Structure (SMILES): COc1cc(OCc2cccc(-c3cccc(COc4cc(OC)c(CNC[C@@H](O)CC(=O)O)cc4C(F)(F)F)c3C)c2C)c(Cl)cc1CNC[C@@H](O)CC(=O)O [Example 357, (S)-4-((4-((3′-((4-((((S)-3-carboxy-2-hydroxypropyl)amino)methyl)-2-chloro-5-methoxyphenoxy)methyl)-2,2′-dimethyl-[1,1′-biphenyl]-3-yl)methoxy)-2-methoxy-5-(trifluoromethyl)benzyl)amino)-3-hydroxybutanoic acid]
IC50 (PD-1/PD-L1): 0.358 nM | AC50 (PD-L1): ≥ 10000 nM | EC50 (PD-1/PD-L1 interaction): 202 nM

Structure (SMILES): Cc1c(COc2cc(OCc3cncc(C#N)c3)c(CNC[C@@H](O)CC(=O)O)cc2Cl)cccc1-c1cccc(-c2ccc3c(CNC[C@@H](O)CC(=O)O)ccc(Cl)c3c2)c1C [Example 359, (S)-4-(((6-(3′-((4-((((S)-3-carboxy-2-hydroxypropyl)amino)methyl)-2-chloro-5-((5-cyanopyridin-3-yl)methoxy)phenoxy)methyl)-2,2′-dimethyl-[1,1′-biphenyl]-3-yl)-4-chloronaphthalen-1-yl)methyl)amino)-3-hydroxybutanoic acid]
IC50 (PD-1/PD-L1): 2.11 nM | AC50 (PD-L1): 540 nM | EC50 (PD-1/PD-L1 interaction): 216 nM

Structure (SMILES): Cc1c(COc2cc(OCc3cncc(C#N)c3)c(CN[C@@](C)(CO)C(=O)O)cc2Cl)cccc1-c1cccc(-c2ccc(CNCCc3c[nH]cn3)cc2)c1C [Example 360, (S)-2-((4-((4″-(((2-(1H-imidazol-4-yl)ethyl)amino)methyl)-2,2′-dimethyl-[1,1′:3′,1″-terphenyl]-3-yl)methoxy)-5-chloro-2-((5-cyanopyridin-3-yl)methoxy)benzyl)amino)-3-hydroxy-2-methylpropanoic acid]
IC50 (PD-1/PD-L1): 1.12 nM | AC50 (PD-L1): 224 nM | EC50 (PD-1/PD-L1 interaction): 520 nM

Structure (SMILES): Cc1c(COc2cc(OCc3cncc(C#N)c3)c(CN[C@@](C)(CO)C(=O)O)cc2Cl)cccc1-c1cccc(-c2ccc(OCCc3cccnc3)c(CNCCO)c2)c1C [Example 364, (S)-2-((5-chloro-2-((5-cyanopyridin-3-yl)methoxy)-4-((3″-(((2-hydroxyethyl)amino)methyl)-2,2′-dimethyl-4″-(2-(pyridin-3-yl)ethoxy)-[1,1′:3′,1″-terphenyl]-3-yl)methoxy)benzyl)amino)-3-hydroxy-2-methylpropanoic acid]
IC50 (PD-1/PD-L1): 0.304 nM | AC50 (PD-L1): 98.3 nM | EC50 (PD-1/PD-L1 interaction): 353 nM

Continued by falling IC50 (PD-1/PD-L1), values first:

IC50 (PD-1/PD-L1): 0.207 nM | AC50 (PD-L1): 56.3 nM | EC50 (PD-1/PD-L1 interaction): 105 nM
Structure (SMILES): C[C@@](CO)(NCc1cc(Cl)c(OCc2cccc(-c3cccc(-c4ccc(OCCNCCO)cc4)c3Cl)c2Cl)nc1OCc1cc(C#N)cc(C#N)c1)C(=O)O [Example 352, (S)-2-(((5-chloro-6-((2,2′-dichloro-4″-(2-((2-hydroxyethyl)amino)ethoxy)-[1,1′:3′,1″-terphenyl]-3-yl)methoxy)-2-((3,5-dicyanobenzyl)oxy)pyridin-3-yl)methyl)amino)-3-hydroxy-2-methylpropanoic acid]

IC50 (PD-1/PD-L1): 0.137 nM | AC50 (PD-L1): 100 nM | EC50 (PD-1/PD-L1 interaction): 2090 nM
Structure (SMILES): CNCc1cccc(-c2cccc(-c3cccc(COc4cc(OCc5cncc(C#N)c5)c(CN[C@@](C)(CO)C(=O)O)cc4Cl)c3C)c2C)c1 [Example 358, (S)-2-((5-chloro-2-((5-cyanopyridin-3-yl)methoxy)-4-((2,2′-dimethyl-3″-((methylamino)methyl)-[1,1′:3′,1″-terphenyl]-3-yl)methoxy)benzyl)amino)-3-hydroxy-2-methylpropanoic acid]

IC50 (PD-1/PD-L1): 0.13 nM | AC50 (PD-L1): 138 nM | EC50 (PD-1/PD-L1 interaction): 314 nM
Structure (SMILES): Cc1c(COc2cc(OCc3cncc(C#N)c3)c(CN[C@@](C)(CO)C(=O)O)cc2Cl)cccc1-c1cccc(-c2ccc(CN[C@H]3CC[C@H](O)CC3)cc2)c1C [Example 361, (S)-2-((5-chloro-2-((5-cyanopyridin-3-yl)methoxy)-4-((4″-((((1r,4r)-4-hydroxycyclohexyl)amino)methyl)-2,2′-dimethyl-[1,1′:3′,1″-terphenyl]-3-yl)methoxy)benzyl)amino)-3-hydroxy-2-methylpropanoic acid]

IC50 (PD-1/PD-L1): 0.122 nM | AC50 (PD-L1): 80.4 nM | EC50 (PD-1/PD-L1 interaction): 381 nM
Structure (SMILES): Cc1c(COc2cc(OCc3cncc(C#N)c3)c(CNC[C@@H](O)CC(=O)O)cc2Cl)cccc1-c1cccc(-c2ccc3c(CCNC[C@@H](O)CC(=O)O)coc3c2)c1C [Example 348, (S)-4-((4-((3′-(3-(2-(((S)-3-carboxy-2-hydroxypropyl)amino)ethyl)benzofuran-6-yl)-2,2′-dimethyl-[1,1′-biphenyl]-3-yl)methoxy)-5-chloro-2-((5-cyanopyridin-3-yl)methoxy)benzyl)amino)-3-hydroxybutanoic acid]

IC50 (PD-1/PD-L1): 0.105 nM | AC50 (PD-L1): 252 nM | EC50 (PD-1/PD-L1 interaction): 527 nM
Structure (SMILES): Cc1c(COc2cc(OCc3cncc(C#N)c3)c(CNC[C@@H](O)CC(=O)O)cc2Cl)cccc1-c1cccc(-c2ncc(COCCNC[C@@H](O)CC(=O)O)s2)c1C [Example 350, (S)-4-((4-((3′-(5-((2-(((S)-3-carboxy-2-hydroxypropyl)amino)ethoxy)methyl)thiazol-2-yl)-2,2′-dimethyl-[1,1′-biphenyl]-3-yl)methoxy)-5-chloro-2-((5-cyanopyridin-3-yl)methoxy)benzyl)amino)-3-hydroxybutanoic acid]

IC50 (PD-1/PD-L1): 0.104 nM | AC50 (PD-L1): 108 nM | EC50 (PD-1/PD-L1 interaction): 221 nM
Structure (SMILES): CC(=O)NCCNCc1ccc(-c2cccc(-c3cccc(COc4cc(OCc5cncc(C#N)c5)c(CN[C@@](C)(CO)C(=O)O)cc4Cl)c3C)c2C)cc1 [Example 362, (S)-2-((4-((4″-(((2-acetamidoethyl)amino)methyl)-2,2′-dimethyl-[1,1′:3′,1″-terphenyl]-3-yl)methoxy)-5-chloro-2-((5-cyanopyridin-3-yl)methoxy)benzyl)amino)-3-hydroxy-2-methylpropanoic acid]

IC50 (PD-1/PD-L1): 0.081 nM | AC50 (PD-L1): 171 nM | EC50 (PD-1/PD-L1 interaction): 168 nM
Structure (SMILES): Cc1c(COc2cc(OCc3cncc(C#N)c3)c(CN[C@@](C)(CO)C(=O)O)cc2Cl)cccc1-c1cccc(-c2ccc(CNC3CNC(=O)C3)cc2)c1C (stereo partly drawn) [Example 363, (2S)-2-((5-chloro-2-((5-cyanopyridin-3-yl)methoxy)-4-((2,2′-dimethyl-4″-(((5-oxopyrrolidin-3-yl)amino)methyl)-[1,1′:3′,1″-terphenyl]-3-yl)methoxy)benzyl)amino)-3-hydroxy-2-methylpropanoic acid]

IC50 (PD-1/PD-L1): 0.074 nM | AC50 (PD-L1): 181 nM | EC50 (PD-1/PD-L1 interaction): 214 nM
Structure (SMILES): Cc1c(COc2cc(OCc3cncc(C#N)c3)c(CNC[C@@H](O)CC(=O)O)cc2Cl)cccc1-c1cccc(NC(=O)c2ccc(CNC[C@@H](O)CC(=O)O)cn2)c1C [Example 346, (S)-4-(((6-((3′-((4-((((S)-3-carboxy-2-hydroxypropyl)amino)methyl)-2-chloro-5-((5-cyanopyridin-3-yl)methoxy)phenoxy)methyl)-2,2′-dimethyl-[1,1′-biphenyl]-3-yl)carbamoyl)pyridin-3-yl)methyl)amino)-3-hydroxybutanoic acid]
